Molecular target: T1, Dimer of Gag-Pol polyprotein [489-587] (Human immunodeficiency virus 1, UniProt P12497)
T1 construct: 489-587
Test: Protease Inhibition Assay
Settings: pH 5.5; 30 °C

CC(C)(C)NC(=O)[C@@H]1C[C@@H]2CCCC[C@@H]2CN1C[C@@H](O)[C@H](Cc1ccccc1)NC(=O)[C@@H](NC(=O)c1ccc2ccccc2n1)[C@H]1CCOC1 [(3S,4aS,8aS)-N-tert-butyl-2-[(2R,3S)-2-hydroxy-3-[(2S)-2-[(3R)-oxolan-3-yl]-2-(quinolin-2-ylformamido)acetamido]-4-phenylbutyl]-decahydroisoquinoline-3-carboxamide]
IC50: 54 pM

From BindingDB's records for doi:10.1021/jm00068a006 (Merck Research Laboratories, 1993)
